We go through seven molecules from paper PMC8708704, “Discovery of New Chemical Tools against Leishmania amazonensis via the MMV Pathogen Box” (Pharmaceuticals, 2021).

SMILES strings stand for the structures. Read-outs that look alike come from different tables or passages of the source.

What is called CC50 is the concentration at which the toxic effect on the cells reaches its halfway point. Read a high CC50 as better tolerance by the cells. As usually defined, the IC50 is the concentration at which inhibition is half-maximal. As a reminder, the inhibition is the share of the control response that was lost under treatment.

Data set [1] can be described thus: Cytotoxic activity against murine macrophages (alamarBlue). Particulars: mouse, J774A.1 murine macrophages. A general note: The colour change of resazurin is a common sign of viable cells or microbes.
Data set [2] relates to Leishmania amazonensis intracellular amastigote. As to the kind of experiment: Intracellular amastigote activity (parasite rescue and transformation assay). It is filed as cell-based. The conditions noted are these: for IC50: Leishmania amazonensis, Macrophage, 24 h treatment of infected macrophages, rescue 72 h, read-out: Leishmania amazonensis Intracellular Amastigote IC50; for Selectivity Index (CC50/IC50), intracellular amastigote: macrophage CC50 / amastigote IC50. Here is the method: The intracellular amastigote activity was measured by parasite rescue and transformation assay, also performed according to Jain et al. […] The macrophages were placed in a 96 well plate at a density of 2 × 10^5/mL in DMEM and incubated for 5 h. […] After the incubation, the excess promastigotes were washed off and serial dilutions of the compounds were added. After 24 h of incubation, we removed the medium and added 30 μL of Schneider medium with 0.05% SDS to break the macrophages. The plate was shaken for 30 s and a further 180 μL of medium was added to each well. The plates were then incubated at 26 °C for 72 h for the transformation of the rescued amastigote into promastigotes. AlamarBlue® was added and the plates were measured and analyzed as discussed above.

The test system of data set [3] is Leishmania amazonensis promastigotes. Briefly: Leishmanicidal activity against promastigotes (alamarBlue assay; screening at 10 µM and IC50). Particulars: for IC50 / inhibition at 10 µM: 72 h; for IC50: alamarBlue, read-out: Leishmania amazonensis Promastigotes IC50; for inhibition at 10 µM: first screening, read-out: % of inhibition at 10 µM (against L. amazonensis promastigotes); for Selectivity Index (CC50/IC50), promastigotes: macrophage CC50 / promastigote IC50. The class given is cell-based. How it is done:
For the experiments, promastigotes of Leishmania amazonensis strain (MHOM/BR/77/LTB0016) were used; they were maintained in RPMI 1640 medium (Gibco, Massachusetts, USA) at 26 °C. […] Subsequently, the plates were analyzed on an EnSpire multimode plate reader (PerkinElmer, MA, USA) to measure their fluorescence after 72 h. […] To this end, serial dilutions were performed in 96 well plates, and incubated with the parasites for 72 h after adding alamarBlue®. Next, the plates were analyzed on the EnSpire plate reader and the IC50 values were calculated by using SigmaPlot 14.0 (Systat Software Inc., Chicago, IL, USA). Each concentration was tested in duplicate and in three independent experiments for all the compounds.

Data set [4] has the same test system. As to the kind of experiment: ATP levels (CellTiter-Glo). It is filed as cell-based. Particulars: IC90 of the compounds, 24 h. How it is done: To detect alterations due to the different treatments on the cellular ATP levels, CellTiter-Glo (Promega) was utilized. […] Finally, luminescence was measured on the EnSpire spectrophotometer (Perkin Elmer). The experiment was performed at least three times in duplicate on different days.
(In general: In ATP-based viability assays light output follows the ATP content of the culture.)

The subject of a further data set is thioredoxin reductase. Further details: method as in PMID 18532880. Particulars: cited from earlier work.
Another data set concerns CYP2C9. More on the design: method as in mmv.org. The conditions noted are these: human cytochrome; ref mmv.org; cited from earlier work.
Details of data set [5]: method as in mmv.org. The conditions noted are these: ref mmv.org; cited from earlier work.
A further data set deals with CYP2D6. Further details: method as in mmv.org. The conditions noted are these: human cytochrome; ref mmv.org; cited from earlier work.
Data set [6] deals with L. amazonensis promastigotes. Briefly: Phosphatidylserine externalization (annexin V / propidium iodide, Tali). The class given is cell-based, Leishmania amazonensis. Particulars: IC90, 24 h (Figure 4 legend: 48 h). The text has this:
To measure the level of population that experiments phosphatidylserine externalization from the inner to the outer part of the cytoplasmic membrane, an Apoptosis kit for Tali (Invitrogen, Thermo Fisher Scientific, Waltham, MA, USA) was utilized. The kit employs annexin-v, which binds to the external phosphatidylserine, and propidium iodide, that penetrates dead cells, to classify the population of the cells as: alive ([…]), dead (propidium stained), and apoptotic (annexin stained). […] A minimum of three independent experiments were performed for this assay. The cells were then quantified by the image-based cytometer Tali® (Life Technologies, Thermo Fisher Scientific, Waltham, MA, USA).

The subject of another data set is promastigotes. Particulars: read-out: IC50 against promastigotes, cited from earlier work.
The subject of data set [7] is intracellular amastigotes. The conditions noted are these: read-out: IC50 against intracellular amastigotes, cited from earlier work.
Data set [8] concerns L. amazonensis promastigotes. Briefly: Reactive oxygen species detection (CellROX Deep Red). It is filed as cell-based, Leishmania amazonensis. Particulars: IC90 of the compounds, 24 h. Here is the method:
After 30 min in darkness, the cells were observed under a fluorescent inverted microscope EVOS FL (Life Technologies, Thermo Fisher Scientific, Waltham, MA, USA). This staining was performed three times in independent tests. A positive control was performed as the internal control and corresponded to cells in which ROS production was achieved through the incubation of parasites with 600 µM hydrogen peroxide 30 min before detection.

The test system of data set [9] is Trypanosoma brucei brucei trypomastigotes. Further details: method as in PMID 28674055, PMID 19091562. Particulars: cited from earlier work.
For another data set, the system named is Plasmodium falciparum. Further details: method as in PMID 19091562. Particulars: cited from earlier work.
Data set [10] concerns intracellular amastigotes of L. donovani. The conditions noted are these: cited from earlier work.
Data set [11] deals with T. cruzi intracellular amastigotes. More on the design: method as in PMID 19091562. The conditions noted are these: cited from earlier work.
The subject of data set [12] is methionine aminopeptidase. Further details: method as in PMID 28674055. Particulars: cited from earlier work.
The subject of another data set is NADPH oxidase 4. Further details: method as in PMID 20731357. The conditions noted are these: cited from earlier work.
The subject of data set [13] is T. evansi trypomastigotes. More on the design: method as in PMID 32112721. Particulars: cited from earlier work.
The test system of data set [14] is L. donovani promastigotes. Further details: method as in PMID 32280200. The conditions noted are these: cited from earlier work.

Take `COc1cccc(-n2nnnc2S(=O)(=O)Cc2ccccc2)c1` [Compound 3, 5-(Benzylsulfonyl)-1-(3-methoxyphenyl)-1H-tetrazole]: in data set [1], half-maximal cytotoxicity (CC50 at 24 h) was put at 8.02 ± 0.93 µM. For the same molecule, the IC50 in data set [2] is 4.78 ± 1.2 µM; in data set [3] (Leishmania amazonensis) it was less than 2000 nM; in data set [3] it was 1330 ± 120 nM; in the data set with CYP2C9, greater than 20 µM; with CYP2D6, 15 µM. Further, the “Selectivity Index (CC50/IC50), intracellular amastigote” value in data set [2] is on record as 1.68. The inhibition at 10 µM in [3] (Leishmania amazonensis) came out at 91%. Further, in data set [4], the ATP levels entry is given as “strong decrease”. The “Interference with thioredoxin reductase” value in the data set on thioredoxin reductase is on record as “interferes”. In addition, in data set [5], the “Glutathione Reactivity” value was “Medium”. Further, in data set [6], the “Dead population (propidium iodide stained)” value is “higher percentage”. Besides, the “Translocation of phosphatidylserine, part of the parasite population” value in data set [6] is recorded as “higher than 50%”.
For `CCCCCCCCCCCCCCCCOP(=O)([O-])OCC[N+](C)(C)C` [Miltefosine], the IC50 in the data set with promastigotes (ref Alonso et al. [15]) was 7.8 µM; in the data set on promastigotes (ref Trinconi et al. [16]), 16.8 µM; in data set [7] (ref Alonso et al. [15]), 1800 nM; in data set [7] (ref Trinconi et al. [16]), 2600 nM. In data set [1], this molecule returned a CC50 at 24 h of 72.2 ± 3.06 µM. The “Selectivity Index (CC50/IC50), intracellular amastigote” value in [2] stood at 23.14. Besides, the “Selectivity Index (CC50/IC50), promastigotes” value in data set [3] is reported as 11.14.
Regarding `c1ccc(-c2nc(NC3CCCCC3)cc(C3CC3)n2)nc1` [Compound 10, N-Cyclohexyl-6-cyclopropyl-2-pyridin-2-ylpyrimidin-4-amine], the “ROS accumulation (CellROX Deep Red fluorescence)” value (shortened to “ROS accumulation”) in data set [8] is “accumulation of ROS”. In [1], the CC50 at 24 h is greater than 10 µM. Also, the IC50 in [2] was 1.33 ± 0.36 µM; in data set [3] (Leishmania amazonensis), less than 2000 nM; in data set [3] it was 1850 ± 390 nM; in the data set on CYP2C9 it was greater than 20 µM; in the data set with CYP2D6 it was greater than 20 µM. In [2], the “Selectivity Index (CC50/IC50), intracellular amastigote” value is on record as greater than 7.52. In data set [9], the “Activity against Trypanosoma brucei brucei trypomastigotes” value is listed as “activity”. For the same molecule, the “Activity against Plasmodium falciparum” value in the data set on Plasmodium falciparum was “active”. In [3] (Leishmania amazonensis), the inhibition at 10 µM was determined as 90%. For the same molecule, the “Selectivity Index (CC50/IC50), promastigotes” value in data set [3] is greater than 5.40. In addition, in [4], the ATP levels result is “less pronounced decrease”. Also, in [10], the “Activity against intracellular amastigotes of L. donovani” value is “activity”. Moreover, in [5], the “Glutathione Reactivity” value was “No GSH adduct”. In addition, the “Activity against T. cruzi intracellular amastigotes” value in data set [11] is on record as “active”. Further, the “Inhibition of methionine aminopeptidase” value in [12] was “inhibitor”.
In the case of `CN1CCC(NCc2cccc(-c3ccc(S(=O)(=O)NCc4ccccc4)cc3)c2)CC1` [Compound 7, N-Benzyl-4-[3-[[(1-methylpiperidin-4-yl)amino]methyl]phenyl]benzenesulfonamide], the “ROS accumulation” value in data set [8] is listed as “accumulation of ROS”. In data set [1], this molecule had a CC50 at 24 h greater than 10 µM. Further, the IC50 in [2] was 2.5 ± 0.27 µM; in [3] (Leishmania amazonensis), less than 2000 nM; in data set [3], 1840 ± 140 nM; with CYP2C9 it was greater than 20 µM; in the data set with CYP2D6 it was greater than 20 µM. Also, the “Selectivity Index (CC50/IC50), intracellular amastigote” value in data set [2] is listed as greater than 4.00. Besides, the “Activity against Trypanosoma brucei brucei trypomastigotes” value in data set [9] was “activity”. In addition, the inhibition at 10 µM in [3] (Leishmania amazonensis) is 91%. In data set [3], the “Selectivity Index (CC50/IC50), promastigotes” value was greater than 5.44. The “Glutathione Reactivity” value in data set [5] is on record as “No GSH adduct”.
Turning to `C[C@H](c1ccc2c(c1)CCCC2)N(C)c1ncc2c(N)nc(N)nc2n1` [Compound 5, 2-N-Methyl-2-N-[(1R)-1-(5,6,7,8-tetrahydronaphthalen-2-yl)ethyl]pyrimido [4,5-d]pyrimidine-2,5,7-triamine], the “ROS accumulation” value in data set [8] was “too damaged to contain the dye”. This molecule returned a CC50 at 24 h in data set [1] greater than 10 µM. In addition, in data set [2], the IC50 stood at 1.25 ± 0.28 µM and the “Selectivity Index (CC50/IC50), intracellular amastigote” value is greater than 8.00. The “Activity against Trypanosoma brucei brucei trypomastigotes” value in [9] is given as “activity”. Also, in data set [3] (Leishmania amazonensis), the IC50 is 590 ± 80 nM and the inhibition at 10 µM is 90%. Moreover, in data set [3], the “Selectivity Index (CC50/IC50), promastigotes” value is on record as greater than 17.06. Further, in [4], the ATP levels result is recorded as “strong decrease”. In addition, in data set [10] (stage not clearly stated for this compound), the “Anti-leishmanial activity (L. donovani)” value is “activity”. In the data set on CYP2C9, the IC50 was greater than 20 µM. Besides, the “Glutathione Reactivity” value in data set [5] is listed as “Medium”. Further, in the data set with CYP2D6, the IC50 is greater than 20 µM. Further, in data set [6], the “Dead population (propidium iodide stained)” value is “higher percentage” and the “Translocation of phosphatidylserine, part of the parasite population” value is given as “higher than 50%”.
Molecule `CCCn1c(NC(=O)c2ccc3ccccc3n2)nc2ccccc21` [Compound 6] came in with a CC50 at 24 h in data set [1] greater than 10 µM. Further, in data set [2], the IC50 was 8.52 ± 0.67 µM and the “Selectivity Index (CC50/IC50), intracellular amastigote” value is listed as greater than 1.17. Moreover, in [3] (Leishmania amazonensis), the IC50 turned out to be 3930 ± 640 nM. For the same molecule, in [3], the “Selectivity Index (CC50/IC50), promastigotes” value was greater than 2.54. In addition, the “Glutathione Reactivity” value in data set [5] is on record as “medium”.
As to `O=C(Nc1ccc(N2CCNCC2)cc1)c1ccn2ncc(-c3cccc(Cl)c3)c2n1` [Compound 9, 3-(3-Chlorophenyl)-N-(4-piperazin-1-ylphenyl)pyrazolo [1,5-a]pyrimidine-5-carboxamide], the “ROS accumulation” value in [8] is listed as “accumulation of ROS”. Besides, half-maximal cytotoxicity in [1] (CC50 at 24 h) was put at 7.22 ± 2.36 µM. Moreover, the IC50 in [2] was 6.9 ± 1.79 µM; in data set [3] (Leishmania amazonensis) it was 770 ± 10 nM; in the data set with CYP2C9, greater than 20 µM; in the data set with CYP2D6 it was greater than 20 µM. The “Selectivity Index (CC50/IC50), intracellular amastigote” value in [2] was 1.05. Besides, the “Inhibition of NADPH oxidase 4” value in the data set on NADPH oxidase 4 is given as “inhibits”. Besides, the “Activity against Trypanosoma brucei brucei trypomastigotes” value in data set [9] is recorded as “activity”. In [3] (Leishmania amazonensis), the inhibition at 10 µM was determined as 91%. Further, the “Selectivity Index (CC50/IC50), promastigotes” value in data set [3] is recorded as 9.35. Also, the “Glutathione Reactivity” value in data set [5] is recorded as “No GSH adduct”. The “Activity against T. evansi trypomastigotes” value in data set [13] was “active”. Also, in [14], the “Activity against L. donovani promastigotes” value is given as “activity”.
